This note sets out measurements from US6821927B1 (priority 1999, dated 2004).

The nature of the series: log P determination by HPLC (EEC directive 79/831 Annex V. A8). It is filed as physicochemical.
Setting [1] is: HPLC, gradient method, acetonitrile/0.1% aqueous phosphoric acid.

Under “HPLC”, `CON=C(C(=O)NO)c1ccccc1Oc1ncnc(Oc2ccccc2Cl)c1F` [Example 2, 2-(2-{[6-(2-Chlorophenoxy)-5-fluoro-4-pyrimidinyl]oxy}phenyl)-N-hydroxy-2-(methoxyimino)-acetamide] came in with a chromatographic logP of 2.56. In turn, `CON=C(C(=O)N(C)O)c1ccccc1Oc1ncnc(Oc2cc(Cl)ccc2Cl)c1F` [Example 6] came in with a chromatographic logP under setting [1] of 3.28.

In the case of `CON=C(C(=O)N(C)O)c1ccccc1Oc1ncnc(Oc2ccccc2Cl)c1F` [Example 1], the logP (HPLC) amounted to 2.82.

Compound `CON=C(C(=O)N(C)OC)c1ccccc1Oc1ncnc(Oc2ccccc2Cl)c1F` [Example 9] displayed a chromatographic logP under setting [1] of 3.5. The same measure, in the same setting: under `CON=C(C(=O)N(C)O)c1ccccc1Oc1ncnc(Oc2cccc(Cl)c2C)c1F` [Example 5] stands 3.29; under `CON=C(C(=O)N(C)O)c1ccccc1Oc1ncnc(Oc2ccccc2F)c1F` [Example 4], 2.66.

Where the note is “HPLC”, `CON=C(C(=O)OC)c1ccccc1Oc1ncnc(Oc2ccccc2Cl)c1F` [Example (VI-1), Methyl 2-{2-[6-(2-chlorophenoxy)-5-fluoro-pyrimidin-4-yloxy]-phenyl}-2-methoxyiminoacetate] displayed a chromatographic logP of 3.61. As to `CON=C(C(=O)N(C)O)c1ccccc1Oc1ncnc(Oc2cccc(Cl)c2Cl)c1F` [Example 7], the chromatographic logP under setting [1] turned out to be 3.22. Regarding `CON=C(C(=O)N(C)OC(C)=O)c1ccccc1Oc1ncnc(Oc2ccccc2Cl)c1F` [Example 3, N-(Acetyloxy)-2-(2-{[6-(2-chlorophenoxy)-5-fluoro-4-pyrimidinyl]oxy}phenyl)-2-(methoxyimino)-N-methylacetamide], for the setting “HPLC (gradient method)”, the chromatographic logP amounted to 3.52. For the compound `CON=C(C(=O)N(C)O)c1ccccc1Oc1ncnc(Oc2ccccc2C#N)c1F` [Example 8], the chromatographic logP under setting [1] stood at 2.43.
